Experimental data: publication PMC3001460, “FYVE-Dependent Endosomal Targeting of an Arrestin-Related Protein in Amoeba” (PLoS ONE, 2010)

Tests used:
[1] = biological target: T1, MBP-FYVE (AdcA FYVE domain) (Dictyostelium discoideum, UniProt Q54CH1); test: intrinsic tryptophan fluorescence titration; type: binding; conditions: read-out: affinity
T1 sequence (Q54CH1 458-530): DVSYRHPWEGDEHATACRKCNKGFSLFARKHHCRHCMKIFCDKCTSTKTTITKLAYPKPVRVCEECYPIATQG

ArfA-His6 = biological target: T2, ArfA-His6 (Dictyostelium discoideum, UniProt O00909 1-182); test: pull-down; GST-AdcAC on glutathione Sepharose beads, ArfA-His6 preincubated 1 hr at 4°C with 100 µM GDPβS or no extra nucleotide, then overnight at 4°C; 20 mM Tris pH 7.5, 25 mM NaCl, 2 mM DTT, 2 mM EDTA, 2.5 mM MgCl2, 1 mM ATP, 0.2% Triton X-100; Western blot with anti-Arf antibody; conditions: both partners purified
T2 construct: Preincubated with 100 µM GDPβS, 100 µM GTPγS or no extra nucleotide before the pull-down; The nucleotide state is told by the assay; also called Dd-ArfA; ADP-ribosylation factor ArfA; source: E. coli BL21(DE3), purified (Ni-NTA agarose); not shown: His6, C-terminal, kept
T2 sequence (O00909 whole entry): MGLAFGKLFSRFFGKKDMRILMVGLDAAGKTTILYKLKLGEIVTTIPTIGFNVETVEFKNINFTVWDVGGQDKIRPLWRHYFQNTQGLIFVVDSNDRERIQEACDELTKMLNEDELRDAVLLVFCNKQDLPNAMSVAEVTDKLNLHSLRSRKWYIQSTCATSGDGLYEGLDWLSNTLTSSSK

## O=P(O)(O)O[C@@H]1[C@H](O)[C@H](OP(=O)(O)O)[C@@H](O)[C@H](O)[C@H]1O [Ins(1,3)P2]
[1]
  Kd: ~20 µM

B1: GST-AdcAC (C domain of the arrestin core of AdcA, amino acids 311 to 459, fused to GST) (domain or fragment, Dictyostelium discoideum, UniProt Q54CH1 311-459, looked up)
chain: MLTKGKLHVKTWLNKNAYFPGETLVAKMKANNTSIKPTRKISLVVHHTMQLKTRLYHRCITNAIYKQQYDGFQPCFYGKRYLPFSIPVDLKPSSSLGKHITSSYLLELECDIPMAIDLSVTLPLTLFAPQFLYSTVPSQPPGTPLPPDV
notes: AdcA (arrestin-domain containing protein A) of Dictyostelium discoideum, whole protein 580 amino acids; C domain of the arrestin core, amino acids 311 to 459, in pGEX-KG; also called GST-AdcC; C-terminal domain of the AdcA arrestin core; not shown: GST, N-terminal, kept
ArfA-His6
  binding result: binds
